Data from US7166622B2, “Substituted phenylsulfonamide inhibitors of beta amyloid production” (Wyeth, priority 2002, dated 2007).
Values joined by “and” are separate entries in the source; they are usually repeats but may differ in a detail not shown here. Equal entries are not always repeated. Where two headings read alike, the source gives them in different places.

How the values were obtained:
CHO-K1 cells = assay: Toxicity in RRA (loss of luciferase signal); conditions: toxicity = loss of signal (<0.75 fold increase)
Procedure: The beta amyloid inhibitory activity of the compounds of the present invention was determined using the Repressor Release Assay (RRA).
“Fold Increase” refers to the amount of luciferase activity (measured in relative light units) over diluent control. “SEM” refers to the standard error of the mean for fold increase.

beta amyloid production = assay: Repressor Release Assay (RRA); type: cell-based; conditions: for fold induction at 10 µg/mL / fold induction at 3 µg/mL / fold induction at 20 µg/mL: read-out: APPI Fold Increase; for APPI % of Example #98: relative to Example 98
Procedure, shortened: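 CHO-K1 cells transiently co-transfected with pRSVO-luc and an APP-lacI construct, replated, then treated in duplicate for 36-48 h at 37 °C, 5% CO2. Compounds diluted in 25 mM Hepes, with Hepes/1% DMSO as diluent control. Luciferase read-out in relative light units; toxicity scored 1 non-toxic, 0 toxic.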

[1] = Conc 10 μg/ml, luciferase activity over diluent control
[2] = Conc 3 μg/ml, luciferase activity over diluent control
[3] = Conc 20 μg/ml, luciferase activity over diluent control
[4] = Conc 20 μg/ml, 1=non-toxic, 0=toxic
[5] = Conc 20 μg/ml, luciferase activity (RLU) over diluent control

With `C=CCCC(O)(CCC=C)[C@@H](NS(=O)(=O)c1ccc(Cl)cc1)[C@@H](C)CC` [Example 233, N-{(1S)-2-(3-butenyl)-2-hydroxy-1-[(1S)-1-methylpropyl]-5-hexenyl}-4-chlorobenzenesulfonamide] the “(%)APPI Toxicity” value (CHO-K1 cells; Conc 10 μg/ml) was 1 (1=non-toxic) and the fold induction at 10 µg/mL (beta amyloid production; [1]) was 6.67.

In the case of `CC[C@H](C)[C@H](NS(=O)(=O)c1ccc(F)cc1)C(C)O` (stereo partly drawn) [Example 126, 4-fluoro-N-[(1S,2S)-1-(1-hydroxyethyl)-2-methylbutyl]benzenesulfonamide], the “(%)APPI Toxicity” value (CHO-K1 cells; Conc 3 μg/ml) is reported as 1 (1=non-toxic), the “(%)APPI Toxicity” value (CHO-K1 cells; Conc 10 μg/ml) is reported as 1 (1=non-toxic) and the fold induction at 3 µg/mL (beta amyloid production; [2]) is reported as 1.54. For the same compound, the fold induction at 10 µg/mL (beta amyloid production; [1]) was 1.52.

`O=S(=O)(NC1(CO)CCc2ccccc21)c1ccc(Cl)cc1` (centres unmarked) [Example 124, 4-chloro-N-[1-(hydroxymethyl)-2,3-dihydro-1H-inden-1-yl]benzenesulfonamide] was tested, and the “(%)APPI Toxicity” value (CHO-K1 cells; Conc 20 μg/ml) was 1 (1=non-toxic) and the fold induction at 20 µg/mL (beta amyloid production; [3]) was 2.

`CC[C@H](C)[C@H](NS(=O)(=O)c1ccc(Cl)cc1)C(O)c1ccc(SC)cc1` (stereo partly drawn) [Example 182, 4-chloro-N-((1S,2S)-1-{hydroxy[4-(methylsulfanyl)phenyl]methyl}-2-methylbutyl) benzenesulfonamide] was tested, and the “(%)APPI Toxicity” value (CHO-K1 cells; Conc 10 μg/ml) was 1 (1=non-toxic), the “APPI Fold Increase” value (beta amyloid production; [1]) was 2.58 fold and the “APPI % of Example #98” value (beta amyloid production; Conc 10 μg/ml) was 122.24%.

For `CC(C)C[C@@H](c1ccccc1)[C@@H](CO)NS(=O)(=O)c1ccc(Cl)cc1` [Example 64, 4-chloro-N-[(1S,2S)-1-(hydroxymethyl)-4-methyl-2-phenylpentyl]benzenesulfonamide], the “(%)APPI Toxicity” value (CHO-K1 cells; [4]) was 1 (1=non-toxic) and the fold induction at 20 µg/mL (beta amyloid production; [5]) was 1.7.

For `CC[C@H](C)[C@H](NS(=O)(=O)c1cccc(Cl)c1)C(O)C=C(C)C` (stereo partly drawn) [Example 197, 3-chloro-N-{(1S)-2-hydroxy-4-methyl-1-[(1S)-1-methylpropyl]-3-pentenyl}benzenesulfonamide], the “(%)APPI Toxicity” value (CHO-K1 cells; Conc 10 μg/ml) was 1 (1=non-toxic) and the fold induction at 10 µg/mL (beta amyloid production; [1]) was 1.54.

In the case of `CCCCC(CO)NS(=O)(=O)c1ccccc1F` (centres unmarked) [Example 110, 2-fluoro-N-[1-(hydroxymethyl)pentyl] benzenesulfonamide], the “(%)APPI Toxicity” value (CHO-K1 cells; Conc 20 μg/ml) is reported as 1 (1=non-toxic), the “APPI Fold Increase” value (beta amyloid production; [3]) is reported as 1.7 fold and the “APPI % of Example #98” value (beta amyloid production; Conc 20 μg/ml) is reported as 46.5%.

`CC(C)C[C@H](CO)NS(=O)(=O)c1ccc(Br)cc1` [Example 102, 4-bromo-N-[(1R)-1-(hydroxymethyl)-3-methylbutyl]benzenesulfonamide] was tested, and the “(%)APPI Toxicity” value (CHO-K1 cells; Conc 20 μg/ml) was 1 (1=non-toxic) and the fold induction at 20 µg/mL (beta amyloid production; [3]) was 1.5.

For “3-chloro-N-{(1S,3E)-2-hydroxy-3-methyl-2-[(1 F)-1-methyl-1-propenyl]-1-[(1S)-1-methylpropyl]-3-pentenyl}benzenesulfonamide [Example 259]”, the “(%)APPI Toxicity” value (CHO-K1 cells; Conc 0.3 μg/ml) was 1 (1=non-toxic), the “(%)APPI Toxicity” value (CHO-K1 cells; Conc 1 μg/ml) was 1 (1=non-toxic) and the “(%)APPI Toxicity” value (CHO-K1 cells; Conc 3 μg/ml) was 1 (1=non-toxic). The “(%)APPI Toxicity” value (CHO-K1 cells; Conc 10 μg/ml) was 1 (1=non-toxic), the “(%)APPI Toxicity” value (CHO-K1 cells; Conc 20 μg/ml) was 1 (1=non-toxic) and the “APPI Fold Increase” value (beta amyloid production; Conc 0.3 μg/ml, luciferase activity over diluent control) was 1.7 fold. For the same compound, the “APPI % of Example #98” value (beta amyloid production; Conc 0.3 μg/ml) was 31.1%, the “APPI Fold Increase” value (beta amyloid production; Conc 1 μg/ml, luciferase activity over diluent control) was 1.7 fold and the “APPI % of Example #98” value (beta amyloid production; Conc 1 μg/ml) was 31.1%. For the same compound, the “APPI Fold Increase” value (beta amyloid production; [2]) was 1.7 fold, the “APPI % of Example #98” value (beta amyloid production; Conc 3 μg/ml) was 31.5% and the “APPI Fold Increase” value (beta amyloid production; [1]) was 2.19 fold and 1.6 fold and 1.7 fold. For the same compound, the “APPI Fold Increase” value (beta amyloid production; [3]) was 4.4 fold and the “APPI % of Example #98” value (beta amyloid production; Conc 20 μg/ml) was 119.7%.

For `O=S(=O)(N[C@H](CO)Cc1ccccc1)c1ccc(Br)cc1` [Example 15, N-[(1S)-1-benzyl-2-hydroxyethyl]-4-bromobenzenesulfonamide], the “(%)APPI Toxicity” value (CHO-K1 cells; Conc 20 μg/ml) was 1 (1=non-toxic) and the fold induction at 20 µg/mL (beta amyloid production; [3]) was 1.5.

With `CCCCC[C@H](C)[C@@H](CO)NS(=O)(=O)c1ccc(Cl)cc1` [Example 60, 4-chloro-N-[(1S,2S)-1-(hydroxymethyl)-2-methylheptyl]benzenesulfonamide] the “(%)APPI Toxicity” value (CHO-K1 cells; [4]) was 1 (1=non-toxic) and the fold induction at 20 µg/mL (beta amyloid production; [5]) was 4.6.

With `C=CCC(O)[C@@H](NS(=O)(=O)c1cccc(Cl)c1)[C@@H](C)CC` (stereo partly drawn) [Example 194, 3-chloro-N-{(1S)-2-hydroxy-1-[(1S)-1-methylpropyl]-4-pentenyl}benzenesulfonamide] the “(%)APPI Toxicity” value (CHO-K1 cells; Conc 10 μg/ml) was 1 (1=non-toxic) and the fold induction at 10 µg/mL (beta amyloid production; [1]) was 3.42.

With `CCCCC(O)[C@@H](NS(=O)(=O)c1ccc(F)cc1)[C@@H](C)CC` (stereo partly drawn) [Example 130, 4-fluoro-N-{(1S)-2-hydroxy-1-[(1S)-1-methylpropyl]hexyl}benzenesulfonamide] the “(%)APPI Toxicity” value (CHO-K1 cells; Conc 10 μg/ml) was 1 (1=non-toxic) and the fold induction at 10 µg/mL (beta amyloid production; [1]) was 2.4.

With `O=S(=O)(N[C@H](CO)CC1CCCCC1)c1ccccc1F` [Example 115, N-[(1S)-2-cyclohexyl-1-(hydroxymethyl)ethyl]-2-fluorobenzenesulfonamide] the “(%)APPI Toxicity” value (CHO-K1 cells; Conc 20 μg/ml) was 1 (1=non-toxic) and the fold induction at 20 µg/mL (beta amyloid production; [3]) was 1.8.

In the case of `CC[C@H](C)[C@H](NS(=O)(=O)c1ccc(Cl)cc1)C(O)CCC1OCCCO1` (stereo partly drawn) [Example 179, 4-chloro-N-{(1S)-4-(1,3-dioxan-2-yl)-2-hydroxy-1-[(1S)-1-methylpropyl]butyl} benzenesulfonamide], the “(%)APPI Toxicity” value (CHO-K1 cells; Conc 10 μg/ml) is reported as 1 (1=non-toxic), the “APPI Fold Increase” value (beta amyloid production; [1]) is reported as 1.63 fold and the “APPI % of Example #98” value (beta amyloid production; Conc 10 μg/ml) is reported as 79.4%.

With `CC[C@H](C)[C@H](NS(=O)(=O)c1ccc(Cl)cc1)C(O)c1ccc(N(C)C)cc1` (stereo partly drawn) [Example 183, 4-chloro-N-{(1S,2S)-1-[[4-(dimethylamino)phenyl](hydroxy)methyl]-2-methylbutyl}benzenesulfonamide] the “(%)APPI Toxicity” value (CHO-K1 cells; Conc 10 μg/ml) was 1 (1=non-toxic) and the fold induction at 10 µg/mL (beta amyloid production; [1]) was 4.49.

For `CC[C@H](C)[C@H](NS(=O)(=O)c1ccccc1F)C(O)(c1ccc(F)cc1)c1ccc(F)cc1` [Example 266, N-{(1S,2S)-1-[bis(4-fluorophenyl)(hydroxy)methyl]-2-methylbutyl}-2-fluorobenzenesulfonamide], the “(%)APPI Toxicity” value (CHO-K1 cells; Conc 10 μg/ml) was 1 (1=non-toxic) and the fold induction at 10 µg/mL (beta amyloid production; [1]) was 1.57.

In the case of `CC[C@H](C)[C@@H](CO)NS(=O)(=O)c1ccccc1F` [Example 11, 2-fluoro-N-[(1S,2S)-1-(hydroxymethyl)-2-methylbutyl]benzenesulfonamide], the “(%)APPI Toxicity” value (CHO-K1 cells; Conc 20 μg/ml) is reported as 1 (1=non-toxic) and the fold induction at 20 µg/mL (beta amyloid production; [3]) is reported as 2.3.

`CC[C@H](C)[C@@H](CO)NS(=O)(=O)c1cc(Cl)cc(Cl)c1` [Example 8, 3,5-dichloro-N-[(1S,2S)-1-(hydroxymethyl)-2-methylbutyl]benzenesulfonamide] was tested, and the “(%)APPI Toxicity” value (CHO-K1 cells; Conc 20 μg/ml) was 1 (1=non-toxic) and the fold induction at 20 µg/mL (beta amyloid production; [3]) was 2.

In the case of `CC[C@H](C)[C@H](NS(=O)(=O)c1ccc(F)cc1)C(O)c1ccc(SC)cc1` (stereo partly drawn) [Example 142, 4-fluoro-N-((1S,2 S)-1-{hydroxy[4-(methylsulfanyl)phenyl]methyl}-2-methylbutyl)benzenesulfonamide], the “(%)APPI Toxicity” value (CHO-K1 cells; Conc 10 μg/ml) is reported as 1 (1=non-toxic) and the fold induction at 10 µg/mL (beta amyloid production; [1]) is reported as 2.71.

With `C=CCCC(O)[C@@H](NS(=O)(=O)c1ccc(Br)cc1)[C@@H](C)CC` (stereo partly drawn) [Example 161, 4-bromo-N-{(1S)-2-hydroxy-1-[(1S)-1-methylpropyl]-5-hexenyl}benzenesulfonamide] the “(%)APPI Toxicity” value (CHO-K1 cells; Conc 10 μg/ml) was 1 (1=non-toxic) and the fold induction at 10 µg/mL (beta amyloid production; [1]) was 1.69.

For `CC(C)[C@@](C)(CO)NS(=O)(=O)c1ccc(Br)cc1` [Example 34, 4-bromo-N-[(1 S)-1-(hydroxymethyl)-1,2-dimethylpropyl]benzenesulfonamide], the “(%)APPI Toxicity” value (CHO-K1 cells; Conc 20 μg/ml) was 1 (1=non-toxic) and the fold induction at 20 µg/mL (beta amyloid production; [3]) was 4.2.

In the case of `CC[C@H](C)[C@H](NS(=O)(=O)c1ccccc1F)C(O)(c1ccc(Cl)cc1)c1ccc(Cl)cc1` [Example 267, N-{(1S,2S)-1-[bis(4-chlorophenyl)(hydroxy)methyl]-2-methylbutyl}-2-fluoro benzenesulfonamide], the “(%)APPI Toxicity” value (CHO-K1 cells; Conc 10 μg/ml) is reported as 1 (1=non-toxic), the “APPI Fold Increase” value (beta amyloid production; [1]) is reported as 1.59 fold and the “APPI % of Example #98” value (beta amyloid production; Conc 10 μg/ml) is reported as 58.97%.

With `CC[C@H](C)[C@H](NS(=O)(=O)c1cccc(Cl)c1)C(O)CCC1OCCCO1` (stereo partly drawn) [Example 199, 3-chloro-N-{(1S)-4-(1,3-dioxan-2-yl)-2-hydroxy-1-[(1S)-1-methylpropyl]butyl}benzenesulfonamide] the “(%)APPI Toxicity” value (CHO-K1 cells; Conc 10 μg/ml) was 1 (1=non-toxic) and the fold induction at 10 µg/mL (beta amyloid production; [1]) was 1.61.

In the case of `CC[C@H](C)[C@@H](CO)NS(=O)(=O)c1ccc(Cl)cc1` [Example 91, 4-Chloro-N-[(1S,2S)-1-(hydroxymethyl)-2-methylbutyl]benzenesulfonamide], the “(%)APPI Toxicity” value (CHO-K1 cells; Conc 3 μg/ml) is reported as 1 (1=non-toxic), the “(%)APPI Toxicity” value (CHO-K1 cells; Conc 10 μg/ml) is reported as 1 (1=non-toxic) and the “(%)APPI Toxicity” value (CHO-K1 cells; Conc 20 μg/ml) is reported as 1 (1=non-toxic). The fold induction at 3 µg/mL (beta amyloid production; [2]) was 1.71 and the fold induction at 10 µg/mL (beta amyloid production; [1]) was 2.38.
